Test results from patent publication US4698354A, “4-methoxy-isophthalic acid derivative having a pharmacological activity in thromboembolic disorders” (Societa Italo-Brittanica L. Manetti-H. Roberts & Co., priority 1986, dated 1987).

Assays:
[1] = tested on: Blood platelet aggregation from ADP; experiment: Blood platelet anti-aggregate activity in vitro, ADP-induced aggregation, rabbit PRP; assay type: cell-based; conditions: Oryctolagus cuniculus, 10 min, 10 minutes incubation at 37° C., read-out: IC50 (50% decrease of maximum amplitude of aggregation curve)
Source text: (§1) The compound object of the present invention has been tested to ascertain the acute toxicity, bio-disponibility and interference with the blood platelet function in vitro and in vivo by carrying out tests in all cases in comparison with another molecule, picotamide monohydrate, which is included in the same class of products, and the pharmacological activity of which is already known (see German patent 3113150).
(§2) Platelet aggregation was induced in rabbit "platelet rich plasma" (PRP) by employing as aggregant agents adenosine diphosphate (ADP) and arachidonic acid (AANa) after incubation at 37° C. for 10 minutes with the compounds under test. The activity is expressed as the concentration able to decrease by 50% (IC50) the maximum amplitude (AM) of the aggregation curve so obtained, with respect to the aggregation curve as obtained with control plasmas incubated only with buffers.
(§3) The results of the tests effected with ADP and AANa are hereinafter referred: […]

[2] = tested on: Blood platelet aggregation from AANa; experiment: Blood platelet anti-aggregate activity in vitro, arachidonic acid (AANa)-induced aggregation, rabbit PRP; assay type: cell-based; conditions: Oryctolagus cuniculus, 10 min, 10 minutes incubation at 37° C., read-out: IC50 (50% decrease of maximum amplitude of aggregation curve)
Source text: as §1, §2, §3

[3] = tested on: platelet aggregation induced by arachidonic acid; experiment: Blood platelet anti-aggregant activity in vivo (arachidonic acid-induced aggregation in PRP of treated rabbits); design: species or system New Zealand rabbits; conditions: for ED50: Oryctolagus cuniculus, Platelet, 0.5 h, rabbit, gum acacia suspension, blood taken 30 minutes after treatment, arachidonic acid, read-out: ID50 (dose decreasing by 50% the maximum amplitude of the aggregation curve)
Source text: as §1
New Zealand rabbits which had been held fasting for twelve hours with water ad libitum, were administered with G 619 and picotamide monohydrate at various dosages in a gum acacia suspension. To the control rabbits only gum acacia was administered. After 30 minutes from treatment the animals were anaesthetized with sodium pentothal (30 mg/Kg i.v.) and blood was taken from the carotid artery, rendered incoagulable with sodium citrate at 3,8% and centrifuged at 1400 rpm for 15 minutes in order to obtain the platelet rich plasma (PRP). On said PRP the platelet aggregation was induced by arachidonic acid and the corresponding aggregation curve was recorded using a Born aggregometer. The activity is indicated as the dose able to decrease by 50% (ID50) the maximum amplitude (AM) of the aggregation curve of plasma of treated animals with respect to that of plasma from control animals, the following results being obtained: […]

[4] = Per os absorbtion in rat, plasma levels; assay type: in vivo; conditions: for concentration at 0.5 h: 1/2 h; for absorbtion, times higher than that of picotamide monohydrate: rat per os
Source text: as §1
Per os absorbtion tests have been carried out in rat after a sole administration of 100 mg/Kg in gum acacia suspension. The determinations of the blood levels of the two substances at various times have been effected on plasma using a high pressure liquid phase chromotograph and indicated as γ/ml. The values referred hereinafter represent the average of 8 determinations: […]

[5] = Acute toxicity (DL50), mouse; conditions: in vivo, sole administration, seven days observation
Source text: as §1
(§4) The compound of the present invention was subjected to acute toxicity tests on two animal species and two administration routes. The animals which are treated per os or endovenously in a sole administration, have been held under observation for seven days after treatment by recording the symptomatology and the number of deaths. The results, referred in the following table, are indicated as the dose which produces the death of 50% of the treated animals (DL50) calculated by statistical method: […]

[6] = Acute toxicity (DL50), rat; conditions: in vivo, sole administration, seven days observation
Source text: as §1, §4

[7] = tested on: platelet aggregation induced with ADP; experiment: Blood platelet anti-aggregant activity in vitro on human PRP, ADP; assay type: cell-based; conditions: for IC50: Platelet, ADP, human PRP, ten minutes incubation at 37° C., read-out: IC50 (50% decrease of maximum amplitude of aggregation curve)
Method: (§5) The blood platelet anti-aggregant activity of G619 was studied in comparison with picotamide on human platelet rich plasma (PRP), wherein the platelet aggregation was induced with ADP, collagen, AANa and U46619 after incubation at 37° C. for ten minutes with the compounds under test. The results, indicated as a concentration able to decrease by 50% (IC50) the maximum amplitude of the aggregation curve obtained with control plasma incubated only with the buffer, are the following: […]

[8] = tested on: platelet aggregation induced with collagen; experiment: Blood platelet anti-aggregant activity in vitro on human PRP, collagen; assay type: cell-based; conditions: ten minutes incubation at 37° C., read-out: IC50 (50% decrease of maximum amplitude of aggregation curve)
Method: as §5

[9] = tested on: platelet aggregation induced with AANa; experiment: Blood platelet anti-aggregant activity in vitro on human PRP, AANa; assay type: cell-based; conditions: ten minutes incubation at 37° C., read-out: IC50 (50% decrease of maximum amplitude of aggregation curve)
Method: as §5

[10] = tested on: platelet aggregation induced with U46619; experiment: Blood platelet anti-aggregant activity in vitro on human PRP, U46619; assay type: cell-based; conditions: ten minutes incubation at 37° C., read-out: IC50 (50% decrease of maximum amplitude of aggregation curve)
Method: as §5

[11] = tested on: production of thromboxane B2 (TxB2); experiment: Production of thromboxane B2 (TxB2) in human PRP after stimulation with collagen; assay type: cell-based; conditions: collagen 1 μg/ml, TxB2 measured in ug/ml
Method: In order to investigate the mechanism of action of G619 the production of malondialdehyde (MDA) and thromboxane B2 (TxB2) after stimulation with collagen 1 μg/ml was measured on human PRP.

[12] = tested on: production of 6-keto-PGFla; experiment: Production of 6-keto-PGFla in human PRP after stimulation with collagen; assay type: cell-based; conditions: collagen 1 ug/ml
Method: The production of 6-keto-PGFla was also measured after stimulation of human PRP with collagen 1 ug/ml.

[13] = tested on: platelet aggregation induced in PRP using ADP; experiment: Blood platelet anti-aggregant activity on human volounteers (ADP-induced aggregation in PRP); assay type: in vivo; conditions: 500 mg sole dose per os; for percent inhibition of the aggregation curve: ADP 2×10^-6 M
Method: On healthy human volounteers of both sexes aging from 31 to 53 the blood anti-aggregant activity was evaluated by per os treatment at a 500 mg sole dose, taking the blood samples before treatment and after 1-2-4-6 hours. The platelet aggregation was induced in PRP using ADP as aggregant agent at a concentration of 2×10^-6 M following the method illustrated in example 2. The platelet anti-aggregant activity reported in quantitative terms in the following table, was calculated as percent inhibition of the aggregation curve after treatment with respect to the […]

[14] = in vivo, po, rat, 100 mg/Kg per os, gum acacia suspension, average of 8 determinations, read-out: blood level (plasma)

Row | Structure (SMILES) | IC50 [1] [µM] | IC50 [2] [µM] | ED50 [3] [mg/kg] | concentration at 0.5 h [4, 14] [ng/mL] | concentration at 1 h [4, 14] [ng/mL] | concentration at 2 h [4, 14] [ng/mL] | LD50 at 168 h ([5]; iv) [mg/kg] | LD50 at 168 h ([5]; po, os) [mg/kg] | LD50 at 168 h ([6]; iv) [mg/kg] | LD50 at 168 h ([6]; po, os) [mg/kg] | IC50 [7] [µM] | IC50 [8] [µM] | IC50 [9] [µM] | IC50 [10] [µM] | IC50 [11] [µM] | maximum activity (platelet anti-aggregant) ([13]; ADP) | percent inhibition of the aggregation curve ([13]; 1 h) | percent inhibition of the aggregation curve ([13]; 2 h) | percent inhibition of the aggregation curve ([13]; 4 h) | percent inhibition of the aggregation curve ([13]; 6 h) | other results
1 | COc1ccc(C(N)=O)cc1C(=O)NCc1cccnc1 [G 619, 3-carbamoyl(3'-picolyl)-4-methoxy-1-benzamide] | 125 | 26.9 | 25 | 26900 | 20200 | 9400 | 400 | > 3000 | 450 | > 3000 | 56 | 11 | 4.2 | 9.2 | 4.6 | 53,8% | 38,2% | 53,8% | 43,4% | 24,2% | activity, times higher than that of picotamide monohydrate ([3]; rabbit in vivo, ID50): about 3 times; concentration at 4 h ([4]; in vivo, po, rat, 100 mg/Kg per os, gum acacia suspension, 4 h, average of 8 determinations, read-out: blood level (plasma)): 2100 ng/mL; absorbtion, times higher than that of picotamide monohydrate ([4]; 1/2 hour): 8 times; absorbtion, times higher than that of picotamide monohydrate ([4]; 2 hours): 19 times; power of action, factor higher with respect to picotamide ([7]; platelet aggregations induced in human PRP (ADP, collagen, AANa, U46619)): 10 factor; activation at 1 µM ([12]; starting from concentrations of 10^-6 M, read-out: increase in the production of 6-keto-PGFla): 100 to 150%; time after treatment of maximum activity ([13]; ADP): two
2 | COc1ccc(C(=O)NCc2cccnc2)cc1C(=O)NCc1cccnc1 [Picotamide monohydrate, N-N'-bis-(3-picolyl)-4-methoxy-isophthalamide monohydrate, reference compound] | 930 | 79 | 78 | 3400 | 1200 | 500 | 275 | 3000 | 190 | 3000 | 820 | 100 | 89 | 250 | 10 | 41,1% | 18,2% | 25,6% | 41,1% | 21,5% | effect on production of 6-keto-PGFla (in words) ([12]; 10^-6 M): hardly efficient
